Experimental data from patent US10793482B2, “Compounds and compositions for delivery of nutrients and micronutrients to plants” (Spero Energy, Inc., priority 2015, dated 2020).

Key:
Format in all cases: in vivo
[1] = tested on: bell pepper plants, Capsicum annuum; assay: Overall plant growth of bell pepper plants grown hydroponically with Fe chelates; conditions: 2 weeks; 4 ppm iron, Steiner hydroponic solution, pH 8; compared with Fe EDTA and Fe EDDHA
Procedure: (§1) Seven (7) identical cultivated varieties of bell pepper plants, Capsicum annuum were grown in individual five-gallon containers deep-water-culture (DWC) containers (the Root Spa bucket system by Hydrofarm) that is continuously aerated by a single oxygen line that stems from an air pump in a soilless media of rockwool surrounded by clay pebbles in a mesh tray that rests on top of the buckets. The pepper plants were grown indoors with an ambient air temperature of around 72° F. The light source came from high-pressure sodium bulbs with a light interval of 12 hours on and 12 hours off.
(§2) The pepper plants were grown with a beginning identical nutritional mix similar to that of a Steiner hydroponic solution. […] The total solution pH was raised to 8 and adjusted daily to maintain the pH at 8. Potassium hydroxide was used to increase the pH. There were 7 treatments of iron added (or not added) to each bucket as follows:
(§3) As more water was needed, the appropriate amount of no-iron Steiner solution and Fe-chelate/Fe-chelate mixture was added to maintain a finished iron solution of 4 ppm.
(§4) Leaf samples (at least two per plant) were collected at the end of the normal nutritional program (2 weeks). […] Elemental analyses of iron content in the plants leaves was carried out after week 2.

[2] = tested on: bell pepper plants, Capsicum annuum; assay: Iron content in leaves of bell pepper plants grown hydroponically with Fe chelates (elemental analysis); conditions: for Amount of iron delivered / iron content by plant tissue analyses (in words): bell pepper plants, 4 ppm iron chelate, compared with EDTA or EDDHA chelates; for Iron content in plant leaves: leaves after week 2, finished iron solution of 4 ppm in no-iron Steiner hydroponic solution, pH 8
Procedure: as §1, §2, §3, §4

Petunia plants = assay: Iron content in plant tissue after drench with Fe treatments (elemental analysis), Petunia; conditions: 4 ppm drench for 3 weeks; soilless media with lime, target pH 7.0
Procedure: (§5) In order to establish the efficacy of PP-derived chelates, we applied the PP-Cres-Asp iron chelate to two plant species known in the field to have difficulties in absorbing iron, Calibrachoa and Petunia plants. In this trial, the plants were grown in soilless media (80% peat and 20% perlite) with lime to increase the target pH to 7.0, a pH that is averse to iron uptake in plants. All plants were top dressed with a standard polymer-coated fertilizer to provide the standard nitrogen, phosphorus, and potassium nutrition along with other micro nutrients, excluding iron. Lighting was controlled for 16-hour days. There were 3 treatments of iron added (or not added) to each bucket as follows:
(§6) Treatments 1-3 were applied to the respective plants as a drench for 3 weeks. Following 3 weeks of treatment, tissue samples were gathered from each plant and subjected to elemental analysis for measurement of iron content in the plant tissue.

Calibrachoa plants = assay: Iron content in plant tissue after drench with Fe treatments (elemental analysis), Calibrachoa; conditions: 4 ppm drench for 3 weeks; soilless media with lime, target pH 7.0
Procedure: as §5, §6

| Molecule | Overall growth of the plants [1] | Amount of iron delivered / iron content by plant tissue analyses (in words) [2] | Fe in plant tissue, Petunia (Petunia plants) [ppm] | Fe in plant tissue, Calibrachoa (Calibrachoa plants) [ppm] | Iron content in plant leaves [2] [ppm] |
| --- | --- | --- | --- | --- | --- |
| CCCc1cc(CN(CC(=O)O)CC(=O)O)c(O)c(OC)c1 [DHE-IDA] | comparable to controls using conventional EDTA or EDDHA and superior to plants where only iron salts without chelate were used | substantially greater than EDTA or EDDHA chelates |  |  |  |
| O=C(O)CN(CCN(CC(=O)O)CC(=O)O)CC(=O)O [Fe EDTA, ethylenediaminetetraacetic acid, reference compound] |  |  | 45 | 39 | 134 |
| Cc1ccc(O)c(CN(Cc2cc(C)ccc2O)C(CC(=O)O)C(=O)O)c1 (stereo not drawn) [PP-Cres-Asp] |  |  | 80 | 56 |  |
| ethylenediamine-N,N′-bis(2-hydroxyphenylacetic acid [Fe EDDHA, reference compound] |  |  |  |  | 91 |
| p-cresol iminodiacetic acid [Cres-IDA] |  | substantially greater than EDTA or EDDHA chelates |  |  |  |
